For 1 molecule, IC50 results are on record in patent publication US20250295609A1, “COMPOUND HAVING ANTI-ANDROGEN RECEPTOR ACTIVITY, AND USE THEREOF” (NANJING MINOVA PHARMACEUTICAL CO., LTD., priority 2022, published 2025).

This test deals with human prostate cancer cells 22Rvl. Put plainly: Cell viability inhibition assay (CTG) on 22Rvl cells. The note with it: 120 h, no DHT, 5 days, read-out: Inhibitory activity against human prostate cancer cells 22Rvl IC50. Format: cell-based. An excerpt:
Human prostate cancer cells LNCaP and human prostate cancer cells 22Rvl are present in patients with prostate cancer. An androgen, DHT, is able to promote the growth of human prostate cancer cells LNCaP. Using the cell model described above was intended to study the inhibitory effects of the compounds of the present disclosure on the growth of human prostate cancer cells (human prostate cancer cells LNCaP and human prostate cancer cells 22Rvl) in the presence or absence of DHT. […]
The medium in the culture dish was discarded, and 5 mL of trypsin was added for digestion for about 3 mins. […] 1 mL of the cells was taken and counted, and the cell viability was detected. […]
After the cells were attached to the well, for the human prostate cancer cells LNCaP group, test compounds (0.1 μM, 0.3 μM, 1 μM, 3 μM, 10 μM, and 30 μM) and DHT (1 nM, inducing the expression of AR) were added to the 96-well plate, and the plate was incubated for another 5 days; for the human prostate cancer cells 22Rvl group, test compounds (0.1 μM, 0.3 μM, 1 μM, 3 μM, 10 μM, and 30 μM) were added to the 96-well plate, and the plate was incubated for another 5 days. […] The cell viability was detected by using a CTG method. […] The fluorescence value in each well was then detected. […] For data analysis, an assay background value was subtracted from all data points, which was determined in wells containing the medium but no cells. […]

Regarding `COc1ccc(/C=C/C(=O)C2(C(=O)/C=C/c3ccc(OC)c(OC)c3)CCC(F)(F)CC2)cc1OC` [Compound 8], the IC50 (commonly the concentration needed to halve the response being measured) stood at 350 nM.
